These results are taken from ChEMBL document CHEMBL1148038, “Inhibition of Botrytis cinerea by New Sesquiterpenoid Compounds Obtained from the Rearrangement of Isocaryophyllene” (1994).

Each structure is given as a SMILES string. Calls of active or inactive are those of the source. The rule behind the calls is not given here.

Test [1] has as its system Botrytis cinerea. As to the kind of experiment: Antifungal activity against Botrytis cinerea at 130 ppm for 5 days by centerpoint incubation disk assay. The class given is functional. The following applies: 120 h, read-out: IZ.
For test [2], the system named is Botrytis cinerea. Description: Antifungal activity against Botrytis cinerea at 100 ppm for 3 days by centerpoint incubation disk assay. The format is functional, organism-based.
The test system of test [3] is Botrytis cinerea. Description: Antifungal activity against Botrytis cinerea at 17 ppm for 3 days by centerpoint incubation disk assay. The following applies: 72 h, read-out: IZ. The class given is functional.
For test [4], the system named is Botrytis cinerea. As to the kind of experiment: Antifungal activity against Botrytis cinerea by centerpoint incubation disk assay. The class given is functional, organism-based.

For `CC1(C)C[C@@]2(O)[C@]3(C)CCC[C@@]2(C)[C@H]1CC3` [ACETYLGINSENOL], the zone of inhibition at 130 ppm in the test on Botrytis cinerea [1] came to 6 mm. Besides, the result with Botrytis cinerea [2] was Active.

For `CC1(C)C[C@@]2(C)CCC[C@]3(C)CC[C@@H]1[C@]32O`, in the test with Botrytis cinerea [3], the zone of inhibition at 17 ppm turned out to be 20 mm. In the test on Botrytis cinerea [2], the result was Active.

For `CC1=CC[C@@H]2[C@H]3[C@@H]1CC[C@@]3(C)CC2(C)C`, the outcome with Botrytis cinerea [4] was inactive.
